What was measured:
melan-a cells [1] = test: Cell survival rate (CCK-8 assay); type: cell-based, murine; conditions: 72 hrs, concentration equal to or lower than 20 μM
Description: Murine melan-a cells (an immortalized, non-tumorigenic murine melanocyte cell line) were obtained from Chinese University of Hong Kong. Cells were cultured in RPMI 1640 medium. Culture medium was supplemented with 10% FBS and 1% penicillin-streptomycin and the cells were incubated at 37° C. in 5% CO2. Melan-a cells were incubated with tetradecanoyl phorbol acetate (TPA) at a concentration of 200 nM. The tested chemical agents (e.g., 6-CEPN and Kojic acid) were individually dissolved as a stock solution at a concentration of 100 mM in 100% dimethyl sulfoxide (DMSO). The stock solution was diluted using culture medium to the desired final concentrations immediately prior to use.
Melan-a cells (10,000 cells/well) were plated in 100 μL 96-well multidishes for at least 24 hours (hrs) prior to use. The cells were treated with serial concentrations of tested chemicals for 72 hrs. After the indicated incubation time, cells were washed three times using PBS and then treated with CCK-8 solution (0.5 mg/mL) for 1.5 hours. Absorbance was measured at 490 nm using Victor X4 Multilabel Plate Reader (PerkinElmer, Mass., USA). Values were expressed as the mean cell viability as a percentage of that of the vehicle DMSO (0.1% final volume)-treated cultures.

melan-a cells [2] = test: Melanosome autophagy by fluorescence microscopy; type: cell-based, murine; conditions: α-MSH, rapamycin 0.5 μM 24 hrs, 6-CEPN 10 μM, 8-CEPQ 5 μM 72 hrs
Description: Melan-a cells (1.5×10^5 cells/well) were seeded on coverslips in 6-well palte. The cells were treated with (1) α-MSH (1 μM) alone for 24 hrs, (2) α-MSH (1 μM) plus rapamycin (0.5 μM) for 24 hrs, (3) α-MSH (1 μM) plus 6-CEPN (10 μM), or (3) α-MSH (1 μM) plus 8-CEPQ (5 μM) for 72 hrs. Culture medium was removed carefully after the cells reached 50%˜70% level of confluence. Cells were stained by microscopy dual detection reagents (autophagy detection kit, Abcam) for 30 mins at 37° C. The stained cells were analyzed by wide-field fluorescence microscopy (60× magnification). Standard FITC filter and DAPI filter were set to image the autophagic signal and the nuclear signal, respectively.

[3] = test system: microtubule-associated protein light chain 3 (LC-3); test: Western blot of LC-3 conversion (autophagy marker); type: cell-based, murine; conditions: melan-a cells, α-MSH and TPA, 72 hrs, 6-CEPN 10 or 20 μM
Description: Melan-a cells (3×10^5 cells/well) were seeded in a 6-well plate with 4 mL RPMI 1640 medium and 10% FBS. Melan-a cells were then transfected with 10 nM siRNA against autophagy-related protein 7 (ATG-7) or with the same concentration of a control siRNA, using HiPerfect Transfection Reagent. After 72 hrs of incubation, cell culture medium was replaced. Cells were then treated for 72 hrs with (1) α-MSH (1 μM) and TPA; (2) α-MSH (1 μM), TPA, and 6-CEPN (10 μM); or (3) α-MSH (1 μM), TPA, and 6-CEPN (20 μM). Total protein of cells was collected as described in the Western blotting in Example 2. The expressions of autophagy related proteins ATG-7 and microtubule-associated protein light chain 3 (LC-3) were analyzed by Western blot. LC-3 was selected because it was widely used to monitor autophagy. LC-3 can convert from a cytosolic form (i.e., LC-3 I) to a lipidated form (i.e., LC-3 II), the latter of which is attached to the autophagosome membrane (Mizushima N, et al., Autophagy, 3(6): 542-545 (2007)). ATG-7 is a required component in the conjugation of other autophagy-related proteins (e.g., the conjugation between ATG-12 and […]), which ultimately leads to the formation of autophagosome (“Autophagy Signaling Pathway,” Cell Signaling Technology, revised online October 2012).

[4] = test system: MelanoDerm (Mel-300-A) epidermal equivalents containing melanocytes; test: Solvable Melanin assay in artificial skin model; type: cell-based, human; conditions: 14 days, rapamycin 2.5 μM, 6-CEPN 10 μM, 8-CEPQ 5 μM
Description: Epidermal equivalents containing melanocytes (Mel-300-A) were maintained according to the manufacturer's instructions. Mel-300-A tissue was cultured in EPI-100-NMM-113 medium for 14 days. Agents were dissolved in tissue culture medium and changed every other day. The test agents were either (1) rapamycin (2.5 μM), as the positive control in depigmentation, (2) 6-CEPN (10 μM), or (3) 8-CEPQ (5 μM). The concentration of rapamycin used was lower than 6-CEPN and 8-CEPQ, as rapamycin is toxic to cells at higher concentration. Pigmentation of these skin equivalents was compared against treatment of cells with a culture medium only (denoted as “vehicle”). Tissue viability was assessed on day 14 by CCK-8 assay as described in Example 1. On day 14, single tissues were harvested and photographed. The L* parameter was used to evaluate skin lightening or darkening. The lighter the skin, the greater the L* value. ΔL* value was measured by a Chroma Meter CR400 (Konica Minolta) for an evaluation of lightening as a function of time. Three tissues for each treatment were frozen for the Solvable Melanin assay (Bessou-Touya et al., “Chimeric human epidermal reconstructs to study the role of melanocytes and keratinocytes in pigmentation and photoprotection.” Journal of investigative dermatology 111(6):1103-1108 (1998)). Additional tissues were fixed by 10% formanin. […]

[5] = test system: MelanoDerm (Mel-300-A) epidermal equivalents containing melanocytes; test: Fontana-Masson silver staining of artificial skin model; type: cell-based, human; conditions: day 14, rapamycin 2.5 μM, 6-CEPN 10 μM
Description: Epidermal equivalents containing melanocytes (Mel-300-A) were maintained according to the manufacturer's instructions. Mel-300-A tissue was cultured in EPI-100-NMM-113 medium for 14 days. Agents were dissolved in tissue culture medium and changed every other day. The test agents were either (1) rapamycin (2.5 μM), as the positive control in depigmentation, (2) 6-CEPN (10 μM), or (3) 8-CEPQ (5 μM). The concentration of rapamycin used was lower than 6-CEPN and 8-CEPQ, as rapamycin is toxic to cells at higher concentration. Pigmentation of these skin equivalents was compared against treatment of cells with a culture medium only (denoted as “vehicle”). Tissue viability was assessed on day 14 by CCK-8 assay as described in Example 1. On day 14, single tissues were harvested and photographed. The L* parameter was used to evaluate skin lightening or darkening. The lighter the skin, the greater the L* value. ΔL* value was measured by a Chroma Meter CR400 (Konica Minolta) for an evaluation of lightening as a function of time. Three tissues for each treatment were frozen for the Solvable Melanin assay (Bessou-Touya et al., “Chimeric human epidermal reconstructs to study the role of melanocytes and keratinocytes in pigmentation and photoprotection.” Journal of investigative dermatology 111(6):1103-1108 (1998)). Additional tissues were fixed by 10% formanin. For melanin staining in paraffin-embedded tissues, Fontana-Masson silver staining was used as previously detailed (Barbosa et al., “A simple and economical modification of the Masson-Fontana method for staining melanin granules and enterochromaffin cells.” Stain technology 59(4):193-196 (1984)).

O=C1C[C@@H](c2ccc(O)cc2)Oc2cc(O)c(/C=C/c3ccccc3)c(O)c21 [6-CEPN, 6-C-(E-phenylethenyl)-naringenin]
cell survival rate (melan-a cells [1]): no significant decrease
melanosome autophagy (melan-a cells [2]): induced melanosome autophagy
conversion of LC-3 I to LC-3 II [3]: increased the conversion of LC-3 I to LC-3 II
amount of melanin in human skin equivalents [4]: significantly inhibited the amount of melanin
melanin content and distribution (Fontana Masson staining) [5]: significant decrease in the melanin content and distribution
thickness of basal layer of tissue [5]: without causing reduction in the thickness of basal layer of tissue

From patent publication US10973748B2, “Compositions and methods for lightening skin and reducing hyperpigmentation” (Versitech Limited, priority 2016, dated 2021)
